{"source": "ChEMBL document CHEMBL1250447", "about": "“An integrated platform of genomic assays reveals small-molecule bioactivities” (Nat Chem Biol, 2008)", "format_in_all_cases": "functional, organism-based", "key": {"Saccharomyces cerevisiae [1]": {"system": "Saccharomyces cerevisiae", "assay": "Suppression of HEM1 gene in Saccharomyces cerevisiae harboring cdc28-as at 0.002% using deletion pool construction by TAG microarray"}, "Saccharomyces cerevisiae [2]": {"system": "Saccharomyces cerevisiae", "assay": "Suppression of HEM1 gene in Saccharomyces cerevisiae harboring cdc28-as transfected with 2 uM expression vector TEplac195 at 0.015% using multicopy pool construction by TAG microarray"}, "Saccharomyces cerevisiae [3]": {"system": "Saccharomyces cerevisiae", "assay": "Suppression of TUB2 gene in Saccharomyces cerevisiae harboring cdc28-as at 15 uM using deletion pool construction by TAG microarray"}, "Saccharomyces cerevisiae [4]": {"system": "Saccharomyces cerevisiae", "assay": "Suppression of TUB1 gene in Saccharomyces cerevisiae harboring cdc28-as at 15 uM using deletion pool construction by TAG microarray"}, "Saccharomyces cerevisiae [5]": {"system": "Saccharomyces cerevisiae", "assay": "Suppression of TUB2 gene in Saccharomyces cerevisiae harboring cdc28-as transfected with 2 uM expression vector TEplac195 at 33.2 uM using multicopy pool construction by TAG microarray"}, "Saccharomyces cerevisiae [6]": {"system": "Saccharomyces cerevisiae", "assay": "Suppression of TUB1 gene in Saccharomyces cerevisiae harboring cdc28-as transfected with 2 uM expression vector TEplac195 at 33.2 uM using multicopy pool construction by TAG microarray"}, "Saccharomyces cerevisiae [7]": {"system": "Saccharomyces cerevisiae", "assay": "Suppression of IFA38 gene in Saccharomyces cerevisiae harboring cdc28-as transfected with 2 uM expression vector TEplac195 at 500 nM using multicopy pool construction by TAG microarray"}, "Saccharomyces cerevisiae [8]": {"system": "Saccharomyces cerevisiae", "assay": "Suppression of CSH1 gene in Saccharomyces cerevisiae harboring cdc28-as transfected with 2 uM expression vector TEplac195 at 500 nM using multicopy pool construction by TAG microarray"}, "Saccharomyces cerevisiae [9]": {"system": "Saccharomyces cerevisiae", "assay": "Suppression of CDC28 gene in Saccharomyces cerevisiae harboring cdc28-as transfected with 2 uM expression vector TEplac195 at 500 nM using multicopy pool construction by TAG microarray"}, "Saccharomyces cerevisiae [10]": {"system": "Saccharomyces cerevisiae", "assay": "Suppression of TOS1 gene in Saccharomyces cerevisiae harboring cdc28-as transfected with 2 uM expression vector TEplac195 at 500 nM using multicopy pool construction by TAG microarray"}, "Saccharomyces cerevisiae [11]": {"system": "Saccharomyces cerevisiae", "assay": "Antimicrobial activity against glc7-129 allele containing Saccharomyces cerevisiae harboring cdc28-as transfected with 2 uM expression vector TEplac195 at 25 nM using deletion pool construction"}, "Saccharomyces cerevisiae [12]": {"system": "Saccharomyces cerevisiae", "assay": "Antimicrobial activity against glc7-127 allele containing Saccharomyces cerevisiae harboring cdc28-as transfected with 2 uM expression vector TEplac195 at 25 nM using deletion pool construction"}, "Saccharomyces cerevisiae [13]": {"system": "Saccharomyces cerevisiae", "assay": "Antimicrobial activity against glc7-127 allele containing Saccharomyces cerevisiae harboring cdc28-as transfected with 2 uM expression vector TEplac195 at 2.5 nM using deletion pool construction"}, "Saccharomyces cerevisiae [14]": {"system": "Saccharomyces cerevisiae", "assay": "Antimicrobial activity against glc7-129 allele containing Saccharomyces cerevisiae harboring cdc28-as transfected with 2 uM expression vector TEplac195 at 2.5 nM using deletion pool construction"}, "Saccharomyces cerevisiae [15]": {"system": "Saccharomyces cerevisiae", "assay": "Suppression of […] gene in Saccharomyces cerevisiae harboring cdc28-as at 2.5 uM using deletion pool construction by TAG microarray"}, "Saccharomyces cerevisiae [16]": {"system": "Saccharomyces cerevisiae", "assay": "Suppression of […] gene in Saccharomyces cerevisiae harboring cdc28-as transfected with 2 uM expression vector TEplac195 at 5 uM using multicopy pool construction by TAG microarray"}}, "note": "Calls of active or inactive are those of the source. The calls are words filed in the database; no cut-off is given here."}
{"smiles": "COS(C)(=O)=O", "values": [{"measurement": "Activity", "setting": "Saccharomyces cerevisiae [1]", "value": "Active"}, {"measurement": "Activity", "setting": "Saccharomyces cerevisiae [2]", "value": "Active"}]}
{"smiles": "COC(=O)Nc1nc2cc(C(=O)c3cccs3)ccc2[nH]1", "values": [{"measurement": "Activity", "setting": "Saccharomyces cerevisiae [3]", "value": "Active"}, {"measurement": "Activity", "setting": "Saccharomyces cerevisiae [4]", "value": "Active"}, {"measurement": "Activity", "setting": "Saccharomyces cerevisiae [5]", "value": "Active"}, {"measurement": "Activity", "setting": "Saccharomyces cerevisiae [6]", "value": "Active"}]}
{"smiles": "CC(C)(C)n1nc(Cc2cccc3ccccc23)c2c(N)ncnc21", "values": [{"measurement": "Activity", "setting": "Saccharomyces cerevisiae [7]", "value": "Active"}, {"measurement": "Activity", "setting": "Saccharomyces cerevisiae [8]", "value": "Active"}, {"measurement": "Activity", "setting": "Saccharomyces cerevisiae [9]", "value": "Active"}, {"measurement": "Activity", "setting": "Saccharomyces cerevisiae [10]", "value": "Active"}]}
{"smiles": "COC[C@@H]([C@H](O)[C@H](O)C(=O)NCC[C@H](C)c1nc(/C=C/C[C@@H]2O[C@]3(C[C@@H](O)[C@@H]2C)O[C@H]([C@H](C[C@H](O)[C@H](C)[C@H](O)[C@H](C)/C=C(C)/C(C)=C/C=C/C(C)=C\\C#N)OC)[C@H](OP(=O)(O)O)C3(C)C)co1)N(C)C", "values": [{"measurement": "Activity", "setting": "Saccharomyces cerevisiae [11]", "value": "Active"}, {"measurement": "Activity", "setting": "Saccharomyces cerevisiae [12]", "value": "inactive"}]}
{"smiles": "C[C@@]12C(=O)OC(=O)[C@]1(C)[C@H]1CC[C@@H]2O1", "values": [{"measurement": "Activity", "setting": "Saccharomyces cerevisiae [13]", "value": "Active"}, {"measurement": "Activity", "setting": "Saccharomyces cerevisiae [14]", "value": "inactive"}]}
{"smiles": "C/C1=C/C(=O)O[C@@H]2C[C@@H](CC[C@H](C)/C=C\\C=C\\CC1)O[C@@](O)([C@@H]1CSC(=O)N1)C2", "values": [{"measurement": "Activity", "setting": "Saccharomyces cerevisiae [15]", "value": "Active"}, {"measurement": "Activity", "setting": "Saccharomyces cerevisiae [16]", "value": "Active"}]}
